Results published in patent US20040038985A1, “Crystal forms of 1- [6-chloro-5-(trifluoromethly) -2-pyridinyl] piperazine hydrochloride” (priority 2000, published 2004).

Assays:
[1] = Stability of crystal forms A and B in admixture with excipients (HPLC content after storage); type: physicochemical; details: for content of Org 12962 remaining after storage, percentage of the initial amount: 14 days
Description: To each aliquot an excipient mentioned in Table II was added, followed by 10 μl of water, after which the suspensions were thoroughly mixed.
Aliquots of Org 12962 (5-10 mg) in crystal form B (100% form B) were weighed into roundbottomed tubes. To each aliquot an excipient mentioned in Table II was added, followed by 100 μl of water. Glass beads (250-300 mg) were added to each tube, after which the samples were thoroughly mixed for 1 minute. The residual water was evaporated in vacuo at room temperature. The tubes were stored in the dark for 14 days at either 20° C. or at 60° C. The samples were dissolved in 20.0 ml of a 70:30 mixture of 25 mM phosphate pH 2.6 buffer and acetonitrile. Dissolution was effected by keeping the tubes in a sonifier for 20 minutes.
Quantitative analysis of the amount of Org 12962 per tube was done by high performance liquid chromatography (hplc) using either of the following validated methods: (1) using a Symmetry Shield Reverse Phase RP 18 column (150×4.6 mm), which was operated at 40° C., using a flow rate of 1.0 ml/min, and as eluent a 69:31 (v/v) mixture of 25 mM phosphate buffer pH 2.6 buffer, also containing 15 mM octanesulphonic acid, and acetonitrile, or (2) using a Lichrospher 60 RP Select B column (125×4.0 mm), which was operated at ambient temperature, using a flow rate of 1.5 ml/min, and as eluent a 55:45 (v/v) mixture of methanol and water, also containing 5 mM octanesulphonic acid. The content of Org 12962 remaining in the samples after storage is given in Table II as the percentage (%) of the initial amount.

[2] = Thermodynamic stability / interconversion of crystal forms of Org 12962; type: physicochemical; details: solid crystal forms of Org 12962 compared
[3] = admixture with Cornstarch (10 mg per 5.0 mg Org 12962), 20° C./dark
[4] = admixture with Cornstarch (10 mg per 5.0 mg Org 12962), 60° C./dark
[5] = admixture with HPC (2 mg per 5.0 mg Org 12962), 20° C./dark
[6] = admixture with HPMC (1.3 mg per 5.0 mg Org 12962), 20° C./dark
[7] = admixture with HPMC (1.3 mg per 5.0 mg Org 12962), 60° C./dark
[8] = admixture with Lactose (80 mg per 5.0 mg Org 12962), 20° C./dark
[9] = admixture with Lactose (80 mg per 5.0 mg Org 12962), 60° C./dark
[10] = admixture with Mg-stearate (0.5 mg per 5.0 mg Org 12962), 20° C./dark
[11] = admixture with Mg-stearate (0.5 mg per 5.0 mg Org 12962), 60° C./dark
[12] = admixture with PEG 400 (0.3 mg per 5.0 mg Org 12962), 20° C./dark
[13] = admixture with PEG 400 (0.3 mg per 5.0 mg Org 12962), 60° C./dark
[14] = admixture with Primojel (4 mg per 5.0 mg Org 12962), 20° C./dark
[15] = admixture with Primojel (4 mg per 5.0 mg Org 12962), 60° C./dark
[16] = admixture with Talc (0.3 mg per 5.0 mg Org 12962), 20° C./dark
[17] = admixture with Talc (0.3 mg per 5.0 mg Org 12962), 60° C./dark
[18] = admixture with Titanium dioxide (0.2 mg per 5.0 mg Org 12962), 20° C./dark
[19] = admixture with Titanium dioxide (0.2 mg per 5.0 mg Org 12962), 60° C./dark

Cl.FC(F)(F)c1ccc(N2CCNCC2)nc1Cl [I, 1-[6-Chloro-5-(trifluoromethyl)-2-pyridinyl]piperazine.hydrochloride]
content of Org 12962 remaining after storage, percentage of the initial amount [1, 3]: 100.0% | content of Org 12962 remaining after storage, percentage of the initial amount [1, 4]: 82.6% | content of Org 12962 remaining after storage, percentage of the initial amount [1, 5]: 98.0% | content of Org 12962 remaining after storage, percentage of the initial amount [1, 6]: 95.0% | content of Org 12962 remaining after storage, percentage of the initial amount [1, 7]: 91.8% | content of Org 12962 remaining after storage, percentage of the initial amount [1, 8]: 94.5% | content of Org 12962 remaining after storage, percentage of the initial amount [1, 9]: 91.2% | content of Org 12962 remaining after storage, percentage of the initial amount [1, 10]: 97.9% | content of Org 12962 remaining after storage, percentage of the initial amount [1, 11]: 93.8% | content of Org 12962 remaining after storage, percentage of the initial amount [1, 12]: 96.5% | content of Org 12962 remaining after storage, percentage of the initial amount [1, 13]: 92.5% | content of Org 12962 remaining after storage, percentage of the initial amount [1, 14]: 95.0% | content of Org 12962 remaining after storage, percentage of the initial amount [1, 15]: 94.6% | content of Org 12962 remaining after storage, percentage of the initial amount [1, 16]: 99.2% | content of Org 12962 remaining after storage, percentage of the initial amount [1, 17]: 94.5% | content of Org 12962 remaining after storage, percentage of the initial amount [1, 18]: 96.0% | content of Org 12962 remaining after storage, percentage of the initial amount [1, 19]: 97.5%

Cl.FC(F)(F)c1ccc(N2CCNCC2)nc1Cl [II, 1-[6-Chloro-5-(trifluoromethyl)-2-pyridinyl]piperazine.hydrochloride]
thermodynamic stability of the crystal form ([2]; listed as crystal form B): thermodynamically most stable form | content of Org 12962 remaining after storage, percentage of the initial amount [1, 3]: 100.1% | content of Org 12962 remaining after storage, percentage of the initial amount [1, 4]: 97.9% | content of Org 12962 remaining after storage, percentage of the initial amount [1, 5]: 100.0% | content of Org 12962 remaining after storage, percentage of the initial amount ([1]; admixture with HPC (2 mg per 5.0 mg Org 12962), 60° C./dark): 96.5% | content of Org 12962 remaining after storage, percentage of the initial amount [1, 6]: 100.0% | content of Org 12962 remaining after storage, percentage of the initial amount [1, 7]: 97.8% | content of Org 12962 remaining after storage, percentage of the initial amount [1, 8]: 99.6% | content of Org 12962 remaining after storage, percentage of the initial amount [1, 9]: 97.4% | content of Org 12962 remaining after storage, percentage of the initial amount [1, 10]: 99.9% | content of Org 12962 remaining after storage, percentage of the initial amount [1, 11]: 97.9% | content of Org 12962 remaining after storage, percentage of the initial amount [1, 12]: 99.8% | content of Org 12962 remaining after storage, percentage of the initial amount [1, 13]: 96.3% | content of Org 12962 remaining after storage, percentage of the initial amount [1, 14]: 100.0% | content of Org 12962 remaining after storage, percentage of the initial amount [1, 15]: 96.0% | content of Org 12962 remaining after storage, percentage of the initial amount [1, 16]: 99.9% | content of Org 12962 remaining after storage, percentage of the initial amount [1, 17]: 100.1% | content of Org 12962 remaining after storage, percentage of the initial amount [1, 18]: 99.8% | content of Org 12962 remaining after storage, percentage of the initial amount [1, 19]: 92.9% | stability in admixture with pharmaceutical excipients, compared with crystal form A ([1]; stored in the dark, especially notable at 60° C. with lactose and cornstarch): more stable

Cl.FC(F)(F)c1ccc(N2CCNCC2)nc1Cl [form C, 1-[6-Chloro-5-(trifluoromethyl)-2-pyridinyl]piperazine.hydrochloride]
thermodynamic stability of the crystal form [2]: spontaneously converts to form B, even at −20 °C
